Experimental data from article PMC9986545, “A novel oral formulation of the melanocortin-1 receptor agonist PL8177 resolves inflammation in preclinical studies of inflammatory bowel disease and is gut restricted in rats, dogs, and humans” (Frontiers in Immunology, 2023).

Experiments:
[1] = tested on: male Wistar rats with DSS-induced colitis; assay: DSS-induced colitis model in rats; format: in vivo
Experimental: . Groups of 6 male Wistar rats weighing 200 ± 20 g were used. All animals, except those in the sham group, received 5% DSS in the drinking water for 3 days, from day 1 to day 3, which was then changed to normal drinking water for the following 5 days in the study. The rats in the sham group were given drinking water only. […]. Mesalazine, which is approved for the treatment of IBD, including ulcerative colitis and Crohn’s disease, was administered orally as a positive control (300 mg/kg once daily) starting on day 4 through day 7 for a total of 4 consecutive days ( Figure 1 ). Colitis was assessed by disease activity index (diarrhea and rectal bleeding) during the study and by colon length shortening, colon weight gain, and colon histopathologic assessment after organ harvesting on day 8. At termination on day 8, 24 hours after the last dose, colon tissues were harvested, rinsed, photographed, weighed, and their lengths measured, and then cut into 2 halves 7 cm from the anus. One half of the harvested colon tissue was snap-frozen with liquid nitrogen for cytokine measurement (interferon [IFN]-γ, IL-1β, IL-6, and TNF-α). The other half of the colon tissue was further cut into 3 parts 2.5, 5, and 7 cm from the anus, fixed in 10% formalin, and kept in 70% ethanol for histopathology. The colon length and colon-to-body weight ratio was calculated for each animal according to the formula: colon weight (g)/body weight (g) × 100%. Colon tissues from rats (n=6 per treatment group) were drop-fixed in 4% paraformaldehyde embedded in paraffin, and sectioned at 4 µm. For histologic scoring, colon sections were stained with hematoxylin and eosin. For immunohistochemistry, colon sections were processed for antigen retrieval and immunostained with primary antibody: keratin 18 (K18) (1:400, Bioss, bs-5405R) and with a rabbit-specific biotin-conjugated secondary antibody from HistoWiz (HistoWiz, Inc. Brooklyn, NY). Representative images were taken at 10x magnification and quantification was performed using HistoWiz AI technology counting positive cells versus all nuclei, specifically in the crypts. All analyses were performed by blinded individuals.
Histologic criteria for the analysis of colitis included abnormalities of mucosal architecture, extent of inflammation, erosion or ulceration, epithelial regeneration, and the percentage involvement of the disease process. The scoring was based on the findings of independent observers by examining 3 colon sections from each animal. Scoring was from 0 = none to 4 = severe for each item, except for percentage involvement of disease process, which scored from 1 (1%–25%) to 4 (76%–100%). Total scores for colitis (total colitis index) were added, resulting in a combined histologic score range from 0 to 60 ( Table S1 ).
Descriptive statistics were used for assessment of colon damage scores (diarrhea, rectal bleeding, and colon weight gain) (DNBS and DSS rat studies) and for the distribution of PL8177 and main metabolite in the GI tract (Sprague-Dawley rat and dog studies). Mean ± SEM were determined, and 1-way analysis of variance followed by Dunnett’s test was applied for comparison between the vehicle and treated groups. Significance was set at the P<0.05 level.
Table S1.Scoring Table for Calculating Total Colitis Index Score in DSS Colitis –Induced Rats
Abnormalities of mucosal None (Norm al) 0
Minimal for focal, not exceeding laminar propria 1
Mild abnormality, cystic dilation/aberrant crypts 2
Moderate or multifocal abnormalities 3
Severe, entire crypt and epithelium lost 4
Extent of inflammation None 0
Minimal for focal, scatter ed calls (<10 %) 1
Moderate, inflammatory cells extending into the submucosa 3
Severe, transmural leukocytic infiltrate from mucosa to serosa 4
Erosion or ulceration No erosion, ulceration, or granulation tissue 0
Minimal or focal, not exceeding lamina propri a 1
Severe ulceration or granulation tissue 4
Epithelial regression Complete regeneration or normal tissue 0 […]

mice with colitis = tested on: mice with colitis; parameters: method as in PMID 9145424; details: twice-daily α-MSH exposure; cited from earlier work
[2] = Mesalazine 300 mg/kg QD oral, days 4-7, day 8, n=6

Compound | % Decrease in Colon Weight vs Vehicle Control ([1]; Mesalazine 300 mg/kg QD oral, days 4-7, day 8) | Mean Colon Length (SEM) [1, 2] | Mean Colon Weight (SEM) [1, 2] | Mean Colon Weight/100 g Body Weight (SEM) [1, 2] | Net Increase (SEM) of colon weight/100 g body weight [1, 2] | Mean Body Weight (SEM) (Day 8) ([1]; Mesalazine 300 mg/kg QD oral, days 4-7, n=6) | Number of K18 positive cells in colon crypts (immunohistochemistry) vs vehicle ([1]; PL8177 (100 µg) or mesalazine, day 8) | Total colitis score (total colitis index), mean [SD] ([1]; mesalazine 300 mg/kg QD oral, histology day 8, n=6, range 0-60) | Reduction in fecal blood (mice with colitis)
Nc1ccc(O)c(C(=O)O)c1 [Mesalazine] | 35% | 18.6 (0.5) cm | 0.570 (0.031) g | 0.235 (0.012) | 0.073 (0.012) | 242.5 (3.0) g | increased number of K18 positive cells, similar to sham | 28.5 [7.71] | 
α-MSH |  |  |  |  |  |  |  |  | 80%
